Source: patent publication US20250250231A1, “NOVEL SUBSTITUTED 4-AMINO-4-OXO-BUT-2-ENYL DERIVATIVES, PROCESSES FOR THEIR PREPARATION AND THERAPEUTIC USES THEREOF” (SANOFI, priority 2022, published 2025)
pIC50: −log10 of the molar value. Where two headings read alike, the source gives them in different places.

Tests used:
Assay type in all cases: cell-based
HCC1428-LTED cells = test: In vitro anti-proliferation assay (CellTiter-Glo viability), HCC1428-LTED cells; details: viability on day 8, relative IC50, read-out: HCC 1428 IC50
Method: (§1) Test: In vitro anti-proliferation assay
(§2) Said test involves measuring the in vitro anti-proliferation activity of the compounds of the Table 1a.
(§3) The measurements of the anti-proliferation activities were made using MCF7-WT (ATCC), MCF7-Y537S and HCC1428-LTED cells as described hereunder.
(§4) On Day 1, MCF7-WT and MCF7-Y537S (Mol Cancer Ther. 2021 20(2):250-262), and HCC1428-LTED (J Clin Invest. 2010; 120(7):2406-2413) cells, were seeded at 2000 (WT and LTED) and 500 (Y537S) cells/well in phenol red free IMEM (Corning, 110-026-CV) with 5% Charcoal stripped-FBS and incubated overnight 37° C. and 5% CO2.
(§5) On day 2, compounds were tested in triplicate in 10-point dose response (1:3 serial dilutions with a top concentration starting 300 nM); DMSO for upper limit (negative control) and staurosporine (1 uM) for lower limit (positive control) were also included. MCF7-WT cells were then supplemented with final 0.1 nM b-estradiol. After treating the cells, the assay plates were transferred back in the incubator at 37° C. and 5% CO2.
(§6) On day 8, cell viability was measured per vendor recommendations (CellTiter-Glo, Promega). Relative IC50 measurements were calculated as follow using a 4-parameter logistic derived from Levenburg Marquardt algorithm (IDBS XL Model 205 fit within A-base).

MCF7-Y537S cells = test: In vitro anti-proliferation assay (CellTiter-Glo viability), MCF7-Y537S cells; details: viability on day 8, relative IC50
Method: as §1, §2, §3, §4, §5, §6

MCF7-WT cells = test: In vitro anti-proliferation assay (CellTiter-Glo viability), MCF7-WT cells; details: MCF7-WT cells supplemented with 0.1 nM b-estradiol, viability on day 8, relative IC50
Method: as §1, §2, §3, §4, §5, §6

SMILES | pIC50 (HCC1428-LTED cells; Homo sapiens, HCC1428, 192 h) | pIC50 (MCF7-Y537S cells) | pIC50 (MCF7-WT cells) | pIC50 (HCC1428-LTED cells) | pIC50 (MCF7-Y537S cells; Homo sapiens, MCF7, 192 h) | pIC50 (MCF7-WT cells; Homo sapiens, MCF7, 192 h)
CN(C)C(=O)/C=C/CN1CCC(Cc2ccc(C3=C(c4ccc(Cl)cc4Cl)CCCc4cc(C(=O)O)ccc43)cc2)C1 (single isomer, unassigned; isomer 1) [Compound 18, (E)-8-(2,4-dichlorophenyl)-9-(4-((1-(4-(dimethylamino)-4-oxobut-2-en-1-yl)pyrrolidin-3-yl)methyl)phenyl)-6,7-dihydro-5H-benzo[7]annulene-3-carboxylic acid, Isomer 1] | 9.52 | 7.23 | 7.59 | – | – | –
CN(C)C(=O)/C=C/CN1CC[C@H](Oc2ccc(C3=C(c4ccc(Cl)cc4Cl)CCCc4cc(C(=O)O)ccc43)cc2)C1 [Compound 1, (S,E)-8-(2,4-dichlorophenyl)-9-(4-((1-(4-(dimethylamino)-4-oxobut-2-en-1-yl)pyrrolidin-3-yl)oxy)phenyl)-6,7-dihydro-5H-benzo[7]annulene-3-carboxylic acid] | 9.15 | – | – | – | ≤ 6.30 | 7.85
CN(C)C(=O)/C=C/CN1CC[C@H](Oc2ccc(C3=C(c4ccc(Cl)cc4F)CCCc4cc(C(=O)O)ccc43)cc2)C1 [Compound 3, (S,E)-8-(4-chloro-2-fluorophenyl)-9-(4-((1-(4-(dimethylamino)-4-oxobut-2-en-1-yl)pyrrolidin-3-yl)oxy)phenyl)-6,7-dihydro-5H-benzo[7]annulene-3-carboxylic acid] | 9.15 | – | – | – | 6.78 | 7.62
CN(C)C(=O)/C=C/CN1CC[C@H](Oc2ccc(C3=C(c4cccc(F)c4Cl)CCCc4cc(C(=O)O)ccc43)cc2)C1 [Compound 4, (S,E)-8-(2-chloro-3-fluorophenyl)-9-(4-((1-(4-(dimethylamino)-4-oxobut-2-en-1-yl)pyrrolidin-3-yl)oxy)phenyl)-6,7-dihydro-5H-benzo[7]annulene-3-carboxylic acid] | 8.70 | – | – | – | ≤ 6.30 | 7.66
CN(C)C(=O)/C=C/CN1CC[C@H](Oc2ccc(C3=C(c4ccccc4)CCCc4cc(C(=O)O)ccc43)cc2)C1 [Compound 6, (S,E)-9-(4-((1-(4-(dimethylamino)-4-oxobut-2-en-1-yl)pyrrolidin-3-yl)oxy)phenyl)-8-phenyl-6,7-dihydro-5H-benzo[7]annulene-3-carboxylic acid] | 9.15 | – | – | – | ≤ 6.30 | 7.85
Cc1ccc(C2=C(c3ccc(O[C@H]4CCN(C/C=C/C(=O)N(C)C)C4)cc3)c3ccc(C(=O)O)cc3CCC2)cc1Cl [Compound 7, (S,E)-8-(3-chloro-4-methylphenyl)-9-(4-((1-(4-(dimethylamino)-4-oxobut-2-en-1-yl)pyrrolidin-3-yl)oxy)phenyl)-6,7-dihydro-5H-benzo[7]annulene-3-carboxylic acid] | 8.70 | – | – | – | ≤ 6.30 | 7.55
Cc1ccc(C2=C(c3ccc(O[C@H]4CCN(C/C=C/C(=O)N(C)C)C4)cc3)c3ccc(C(=O)O)cc3CCC2)c(C)c1 [Compound 8, (S,E)-9-(4-((1-(4-(dimethylamino)-4-oxobut-2-en-1-yl)pyrrolidin-3-yl)oxy)phenyl)-8-(2,4-dimethylphenyl)-6,7-dihydro-5H-benzo[7]annulene-3-carboxylic acid] | 9.70 | – | – | – | 7.06 | 8.52
CN(C)C(=O)/C=C/CN1CC[C@H](Oc2ccc(C3=C(c4ccccc4Cl)CCCc4cc(C(=O)O)ccc43)cc2)C1 [Compound 9, (S,E)-8-(2-chlorophenyl)-9-(4-((1-(4-(dimethylamino)-4-oxobut-2-en-1-yl)pyrrolidin-3-yl)oxy)phenyl)-6,7-dihydro-5H-benzo[7]annulene-3-carboxylic acid] | 9.70 | – | – | – | 7.06 | 8.40
Cc1ccc(C2=C(c3ccc(O[C@H]4CCN(C/C=C/C(=O)N(C)C)C4)cc3)c3ccc(C(=O)O)cc3CCC2)c(Cl)c1 [Compound 11, (S,E)-8-(2-chloro-4-methylphenyl)-9-(4-((1-(4-(dimethylamino)-4-oxobut-2-en-1-yl)pyrrolidin-3-yl)oxy)phenyl)-6,7-dihydro-5H-benzo[7]annulene-3-carboxylic acid] | 10.00 | – | – | – | 6.69 | 8.70
CN(C)C(=O)/C=C/CN1CC(=Cc2ccc(C3=C(c4ccc(Cl)cc4Cl)CCCc4cc(C(=O)O)ccc43)cc2)C1 [Compound 14, (E)-8-(2,4-dichlorophenyl)-9-(4-((1-(4-(dimethylamino)-4-oxobut-2-en-1-yl)azetidin-3-ylidene)methyl)phenyl)-6,7-dihydro-5H-benzo[7]annulene-3-carboxylic acid] | 9.40 | – | – | – | 9.40 | 7.00
CN(C)C(=O)/C=C/CN1CC[C@H](Nc2ccc(C3=C(c4ccc(Cl)cc4Cl)CCCc4cc(C(=O)O)ccc43)cc2)C1 [Compound 16, (S,E)-8-(2,4-dichlorophenyl)-9-(4-((1-(4-(dimethylamino)-4-oxobut-2-en-1-yl)pyrrolidin-3-yl)amino)phenyl)-6,7-dihydro-5H-benzo[7]annulene-3-carboxylic acid] | 7.48 | – | – | – | 6.76 | 7.43

Further lines, results first:

pIC50 (HCC1428-LTED cells; Homo sapiens, HCC1428, 192 h) | pIC50 (MCF7-Y537S cells) | pIC50 (MCF7-WT cells) | pIC50 (HCC1428-LTED cells) | pIC50 (MCF7-Y537S cells; Homo sapiens, MCF7, 192 h) | pIC50 (MCF7-WT cells; Homo sapiens, MCF7, 192 h) | SMILES
– | 7.68 | 8.05 | 9.70 | – | – | CN(C)C(=O)/C=C/CN1CCC(Cc2ccc(C3=C(c4ccc(Cl)cc4Cl)CCCc4cc(C(=O)O)ccc43)cc2)C1 (single isomer, unassigned; isomer 2) [Compound 19, (E)-8-(2,4-dichlorophenyl)-9-(4-((1-(4-(dimethylamino)-4-oxobut-2-en-1-yl)pyrrolidin-3-yl)methyl)phenyl)-6,7-dihydro-5H-benzo[7]annulene-3-carboxylic acid, Isomer 2]
9.40 | – | – | – | ≤ 6.30 | 8.00 | CN(C)C(=O)/C=C/CN1CC[C@H](Oc2ccc(C3=C(c4ccc(F)cc4Cl)CCCc4cc(C(=O)O)ccc43)cc2)C1 [Compound 2, (S,E)-8-(2-chloro-4-fluorophenyl)-9-(4-((1-(4-(dimethylamino)-4-oxobut-2-en-1-yl)pyrrolidin-3-yl)oxy)phenyl)-6,7-dihydro-5H-benzo[7]annulene-3-carboxylic acid]
9.70 | – | – | – | 7.12 | 8.52 | Cc1ccc(C2=C(c3ccc(O[C@H]4CCN(C/C=C/C(=O)N(C)C)C4)cc3)c3ccc(C(=O)O)cc3CCC2)c(F)c1 [Compound 5, (S,E)-9-(4-((1-(4-(dimethylamino)-4-oxobut-2-en-1-yl)pyrrolidin-3-yl)oxy)phenyl)-8-(2-fluoro-4-methylphenyl)-6,7-dihydro-5H-benzo[7]annulene-3-carboxylic acid]
9.52 | – | – | – | ≤ 6.30 | 8.10 | COc1ccc(C2=C(c3ccc(O[C@H]4CCN(C/C=C/C(=O)N(C)C)C4)cc3)c3ccc(C(=O)O)cc3CCC2)c(F)n1 [Compound 10, (S,E)-9-(4-((1-(4-(dimethylamino)-4-oxobut-2-en-1-yl)pyrrolidin-3-yl)oxy)phenyl)-8-(2-fluoro-6-methoxypyridin-3-yl)-6,7-dihydro-5H-benzo[7]annulene-3-carboxylic acid]
8.52 | – | – | – | ≤ 6.30 | 6.90 | CN(C)C(=O)/C=C/CN1CC(Oc2ccc(C3=C(c4ccc(Cl)cc4Cl)CCCc4cc(C(=O)O)ccc43)cc2)C1 [Compound 12, (E)-8-(2,4-dichlorophenyl)-9-(4-((1-(4-(dimethylamino)-4-oxobut-2-en-1-yl)azetidin-3-yl)oxy)phenyl)-6,7-dihydro-5H-benzo[7]annulene-3-carboxylic acid]
11.00 | – | – | – | 8.05 | 8.52 | CN(C)C(=O)/C=C/CN1CC(Cc2ccc(C3=C(c4ccc(Cl)cc4Cl)CCCc4cc(C(=O)O)ccc43)cc2)C1 [Compound 13, (E)-8-(2,4-dichlorophenyl)-9-(4-((1-(4-(dimethylamino)-4-oxobut-2-en-1-yl)azetidin-3-yl)methyl)phenyl)-6,7-dihydro-5H-benzo[7]annulene-3-carboxylic acid compound with 2,2,2-trifluoroacetic acid (1:1)]
8.30 | – | – | – | 6.73 | 7.28 | CN(C)C(=O)/C=C/CN1CC[C@@H](Oc2ccc(C3=C(c4ccc(Cl)cc4Cl)CCCc4cc(C(=O)O)ccc43)cc2)C1 [Compound 15, (R,E)-8-(2,4-dichlorophenyl)-9-(4-((1-(4-(dimethylamino)-4-oxobut-2-en-1-yl)pyrrolidin-3-yl)oxy)phenyl)-6,7-dihydro-5H-benzo[7]annulene-3-carboxylic acid]
9.00 | – | – | – | 6.86 | 8.00 | CN(C)C(=O)/C=C/CN1CC[C@@H](Nc2ccc(C3=C(c4ccc(Cl)cc4Cl)CCCc4cc(C(=O)O)ccc43)cc2)C1 [Compound 17, (R,E)-8-(2,4-dichlorophenyl)-9-(4-((1-(4-(dimethylamino)-4-oxobut-2-en-1-yl)pyrrolidin-3-yl)amino)phenyl)-6,7-dihydro-5H-benzo[7]annulene-3-carboxylic acid]
